From patent EP3655424B1, “PEPTIDES MODULATING SPERM MOTILITY BY MODULATING THE PHOSPHOPROTEIN PHOSPHATASE 1 COMPLEX” (University of Wolverhampton, priority 2017, dated 2021)
Read-outs that look alike come from different tables or passages of the source.

Key:
bovine spermatozoa [1] = assay: Motility assay (Sperm Class Analyzer CASA System), bovine sperm; assay type: cell-based; conditions: for concentration-dependent effect on motility parameters: 10 µM versus 20 µM
Description: (§1) This study was approved by the Ethics and Internal Review Board of the Hospital Infante D. Pedro E.P.E. (Aveiro, Portugal) and was conducted in accordance with the ethical standards of the Helsinki Declaration. Human semen samples were obtained from a randomized group of donors, by masturbation to a sterile container. All donors signed informed consent allowing the samples to be used for scientific purposes. Basic semen analysis was performed according to World Health Organization (WHO) guidelines. Fresh semen from Holstein Frisian bulls was obtained from LusoGenes, LDA (Aveiro, Portugal). Semen was collected by artificial vagina and assessed by a certified veterinarian. Human and bovine spermatozoa were isolated and washed from seminal plasma by centrifugation (800 g for 5 min, 3 times) using ALLGrade Wash medium (LifeGlobal, Brussels, Belgium). Spermatozoa pellets were resuspended in medium to a final concentration of 20x10^6 cells/0.5 mL and incubated at 37°C with 5 % CO2 until the appropriated treatments were added.
(§2) Peptides (PPP1CC2-CT, TAMRA-PPP1CC2-CT, AKAP4 and AKAP4 M) were added to bovine and human sperm samples in total volume of 500 µl containing approximately 2 x10^7 sperm cells per well. Control samples included sperm cells in medium alone. The influence of bioportides on sperm motility parameters was assessed using the Sperm Class Analyzer CASA System (Microptic S L, Barcelona, Spain) with SCA® v5.4 software. Samples and controls (2 µl) were loaded into individual chambers of Leja Standrat Count 8 chamber slide 20 µm depth (Leja Products B. V., The Netherlands) which were pre-heated at 37 °C. This temperature was maintained while at least 1000 sperm cells/per measurement were evaluated. Each peptide was tested on samples from 3 individual donors and all the conditions were performed in triplicate.
(§3) Bovine and human spermatozoa were exposed to different extracellular peptide concentrations (10 and 20 µM) and motility parameters were assessed at 1 and 2 h. For reference, negative controls were performed in the absence of peptides.

human spermatozoa [2] = assay: Intracellular accumulation / quantitative translocation of TAMRA-labelled peptides, human sperm; assay type: cell-based
Description: […] Cells were then washed three times (800 g for 5 min) in ALLGrade Wash medium (LigeGlobal, Brussels, Belgium). To confirm if the fluorescently labeled peptides were not merely surface associated, the sperm cell population was divided in two and a trypsin incubation was used to remove any surface associated peptides. In summary, half of the cells were set aside (2 x10^7 cells) and fixed in 4 % paraformaldehyde (PFA) for 20 min. The other half was incubated with 1 % (wt/vol) trypsin at 37 °C, collected by centrifugation at 3000 g, washed in ALLGrade Wash medium (LigeGlobal, Brussels, Belgium) and resuspended in 4 % PFA 20 min. Fixed cells from each preparation were spread into coverslips and allowed to air dry. After mounting, slides were assessed by fluorescence microscopy (Imager.Z1, Axio-Cam HRm camera and AxioVision software, Zeiss, Jena, Germany). Translocation efficacies of CPP-mediated intracellular delivery of the peptides sequences were determined by the quantitative uptake analysis of fluorescently labeled moieties^[3]. […] Cells were then washed four times with PBS, detached with 1 % (w/v) trypsin at 37 °C, collected by centrifugation at 3000 g and lysed in 300 µl 0.1 M NaOH for 2 h on ice. 250 µl of each sample cell lysate were transferred to a black 96-well plate, and analyzed using an Infinite® 200 PRO (Tecan, Switzerland) (λAbs 544 nm/λEm 590 nm).

human spermatozoa [3] = assay: Motility assay (Sperm Class Analyzer CASA System), human sperm; assay type: cell-based; conditions: for motility parameters / immotile spermatozoa increased (printed: mean decrease) / mean decrease in fast progressive motility / mean decrease in non-progressive motility / mean decrease in slow progressive motility: human spermatozoa; for immotile spermatozoa increased (printed: mean decrease) / mean decrease in fast progressive motility / mean decrease in non-progressive motility / mean decrease in slow progressive motility: 20 µM
Description: as §1, §2, §3

bovine spermatozoa [4] = assay: Intracellular accumulation / quantitative translocation of TAMRA-labelled peptides, bovine sperm; assay type: cell-based
Description: Isolated bovine and human spermatozoa (4 x10^7 cells) were suspended and incubated with 10 µM TAMRA-labeled peptides for 1 h at 37 °C in a humidified atmosphere of 95% air/5 % CO2. Cells were then washed three times (800 g for 5 min) in ALLGrade Wash medium (LigeGlobal, Brussels, Belgium). To confirm if the fluorescently labeled peptides were not merely surface associated, the sperm cell population was divided in two and a trypsin incubation was used to remove any surface associated peptides. In summary, half of the cells were set aside (2 x10^7 cells) and fixed in 4 % paraformaldehyde (PFA) for 20 min. The other half was incubated with 1 % (wt/vol) trypsin at 37 °C, collected by centrifugation at 3000 g, washed in ALLGrade Wash medium (LigeGlobal, Brussels, Belgium) and resuspended in 4 % PFA 20 min. Fixed cells from each preparation were spread into coverslips and allowed to air dry. After mounting, slides were assessed by fluorescence microscopy (Imager.Z1, Axio-Cam HRm camera and AxioVision software, Zeiss, Jena, Germany). Translocation efficacies of CPP-mediated intracellular delivery of the peptides sequences were determined by the quantitative uptake analysis of fluorescently labeled moieties^[3]. Isolated bovine and human spermatozoa were incubated with 10 µM TAMRA-labeled peptides for 1 h at 37 °C in a humidified atmosphere of 5 % CO2. Cells were then washed four times with PBS, detached with 1 % (w/v) trypsin at 37 °C, collected by centrifugation at 3000 g and lysed in 300 µl 0.1 M NaOH for 2 h on ice. 250 µl of each sample cell lysate were transferred to a black 96-well plate, and analyzed using an Infinite® 200 PRO (Tecan, Switzerland) (λAbs 544 nm/λEm 590 nm).

bovine spermatozoa [5] = assay type: cell-based
Description: Bovine spermatozoa viability was evaluated using the trypan blue viability test according to manufacturer's guidelines. Human spermatozoa viability was measured using the CellTiter 96® AQueous Non-Radioactive Cell Proliferation Assay (Promega, Madison, USA) according to manufacturer's guidelines.

PPP1CC2-AKAP4 complex = assay: Disruption of PPP1CC2-AKAP4 complex purified from human sperm (Figure 6B); assay type: binding; conditions: co-incubation, AKAP4-BM at 10 µM
Description: To establish that the detected fluorescence was not attributed to surface-associated peptide, isolated sperm cells were incubated for 1h with 10µM TAMRA-labelled peptide and subsequently treated with 1% (w/v) trypsin to remove any peptide bound to the surface of spermatozoa. Negative controls without the TAMRA-labelled peptides were performed and presented no reactivity. Images are representative from three independent experiments. Lower panel (right): Quantitative analyses of peptide translocation into bovine and human spermatozoa. Bovine and human spermatozoa were incubated with TAMRA-labelled bioportides (10µM) for 1 h at 37°C. Data are expressed as fluorescence (minus negative control). Three independent experiments were performed in quadruplicate. […] Graph bars represent the mean values of three independent experiments performed in triplicate. Error bars 95% CI. […] Graph bars represent the mean values of three independent experiments performed in triplicate. Error bars 95% CI. […] Images are representative from 3 independent experiments. […] A PPP1CC2-AKAP4 complex was purified from human sperm (Lane 1, left). […] 12, a PPP1 inhibitor, was used as a positive control and, as expected, also decreases the interaction (lane 4). […]

[6] = 10 µM, 1h, compared with negative control
[7] = 10 µM, 2h, compared with AKAP4-BM M
[8] = 10 µM, 2h, compared with negative control
[9] = 20 µM, 1h, compared with AKAP4-BM M
[10] = 20 µM, 1h, compared with negative control
[11] = 20 µM, 2h, compared with AKAP4-BM M
[12] = 20 µM, 2h, compared with negative control
[13] = 1h, compared with negative control
[14] = 2h, compared with negative control

AKAP4-BM M: mutated homologue (GQQDQDRAAAAAVDVSTLNV) of AKAP4-BM coupled to the Penetratin CPP, used as a control [reference compound]
motility parameters (bovine spermatozoa [1]; compared with negative control, two exceptions: fast progressive motility at 1h with 20 µM, immotile spermatozoa with 10 µM at 1h): did not lead to significant differences
intracellular accumulation of red fluorescent (TAMRA) analogues (human spermatozoa [2]; human spermatozoa, 5 µM, Figure 6A): accumulate within normal healthy human spermatozoa
internalization (microscopic analyses) (human spermatozoa [2]; human spermatozoa, 10 µM TAMRA-labelled peptide, 1 h, 37 °C, trypsin treated): internalized less efficiently
motility parameters (human spermatozoa [3]; compared with negative control, one exception: fast progressive motility at 2h with 20 µM): did not lead to significant differences
internalization (microscopic analyses) (bovine spermatozoa [4]; bovine spermatozoa, 10 µM TAMRA-labelled peptide, 1 h, 37 °C, trypsin treated): internalized less efficiently

GQQDQDRKVICFVDVSTLNVRQIKIWFQNRRMKWKK [AKAP4-BM]
percentage of viable spermatozoa (bovine spermatozoa [5]): slight decrease
concentration-dependent effect on motility parameters (bovine spermatozoa [1]): concentration-dependent effect
mean decrease in fast progressive motility (bovine spermatozoa [1]; 10 µM, 1h, compared with AKAP4-BM M): 41.9 ± 20.0%
mean decrease in fast progressive motility (bovine spermatozoa [1]; [6]): 49.8 ± 22.5%
mean decrease in fast progressive motility (bovine spermatozoa [1]; [7]): 43.9 ± 15.3%
mean decrease in slow progressive motility (bovine spermatozoa [1]; [7]): 21.6 ± 64.4%
mean decrease in fast progressive motility (bovine spermatozoa [1]; [8]): 50.5 ± 9.7%
mean decrease in slow progressive motility (bovine spermatozoa [1]; [8]): 42.4 ± 20.4%
mean decrease in fast progressive motility (bovine spermatozoa [1]; [9]): 95.0 ± 6.5%
mean decrease in non-progressive motility (bovine spermatozoa [1]; [9]): 63.1 ± 8.3%
immotile spermatozoa, mean increase (bovine spermatozoa [1]; [10]): 91.8 ± 25.4%
mean decrease in non-progressive motility (bovine spermatozoa [1]; [10]): 50.0 ± 10.9%
mean decrease in slow progressive motility (bovine spermatozoa [1]; [10]): 95.3 ± 4.8%
mean decrease in fast progressive motility (bovine spermatozoa [1]; [11]): 98,4 ± 2,6%
mean decrease in non-progressive motility (bovine spermatozoa [1]; [11]): 63.0 ± 7.5%
mean decrease in slow progressive motility (bovine spermatozoa [1]; [11]): 94.1 ± 4.9%
immotile spermatozoa, mean increase (bovine spermatozoa [1]; [12]): 183.7 ± 88.4%
mean decrease in fast progressive motility (bovine spermatozoa [1]; [12]): 98.6 ± 2.9%
mean decrease in slow progressive motility (bovine spermatozoa [1]; [12]): 94.2 ± 4.8%
internalization (microscopic analyses) (human spermatozoa [2]): internalized very efficiently
progressive motility (human spermatozoa [3]; human sperm, Figure 6C left panel): statistically significant decrease in progressive motility
percentage of immotile spermatozoa (human spermatozoa [3]; human sperm, Figure 6C middle panel): corresponding increase in the percentage of immotile spermatozoa
immotile spermatozoa increased (printed: mean decrease) (human spermatozoa [3]; 1h, compared with AKAP4-BM M): 47.3 ± 19.2%
mean decrease in fast progressive motility (human spermatozoa [3]; 1h, compared with AKAP4-BM M): 87.0 ± 4.3%
mean decrease in non-progressive motility (human spermatozoa [3]; 1h, compared with AKAP4-BM M): 43.4 ± 24.8%
mean decrease in slow progressive motility (human spermatozoa [3]; 1h, compared with AKAP4-BM M): 85.1 ± 5.2%
immotile spermatozoa increased (printed: mean decrease) (human spermatozoa [3]; [13]): 63.0 ± 27.8%
mean decrease in fast progressive motility (human spermatozoa [3]; [13]): 49.8 ± 22.5%
mean decrease in non-progressive motility (human spermatozoa [3]; [13]): 31.0 ± 26.9%
mean decrease in slow progressive motility (human spermatozoa [3]; [13]): 87,6 ± 5,2%
immotile spermatozoa increased (printed: mean decrease) (human spermatozoa [3]; 2h, compared with AKAP4-BM M): 41.9 ± 14.7%
mean decrease in fast progressive motility (human spermatozoa [3]; 2h, compared with AKAP4-BM M): 82.7 ± 20.7%
mean decrease in non-progressive motility (human spermatozoa [3]; 2h, compared with AKAP4-BM M): 50.6 ± 21.0%
mean decrease in slow progressive motility (human spermatozoa [3]; 2h, compared with AKAP4-BM M): 82.3 ± 11.5%
immotile spermatozoa increased (printed: mean decrease) (human spermatozoa [3]; [14]): 74.5 ± 28.3%
mean decrease in fast progressive motility (human spermatozoa [3]; [14]): 50.5 ± 9.7%
mean decrease in non-progressive motility (human spermatozoa [3]; [14]): 58.6 ± 16.1%
mean decrease in slow progressive motility (human spermatozoa [3]; [14]): 85,7 ± 8,7%
internalization (microscopic analyses) (bovine spermatozoa [4]): internalized very efficiently
interaction between PPP1CC2 and AKAP4 (PPP1CC2-AKAP4 complex): disrupts the PPP1CC2-AKAP4 complex

RQIKIWFQNRRMKWKKKPNATRPVTPPRVASGLNPSIQKASNYRNNTVLY (H-RQIKIWFQNRRMKWKKKPNATRPVTPPRVASGLNPSIQKASNYRNNTVLY-NH2) [PPP1CC2-CT]
concentration-dependent effect on motility parameters (bovine spermatozoa [1]): no concentration-dependent effect
immotile spermatozoa, mean increase (bovine spermatozoa [1]; [6]): 72.5 ± 33.6%
mean decrease in fast progressive motility (bovine spermatozoa [1]; [6]): 55.9 ± 19.4%
mean decrease in slow progressive motility (bovine spermatozoa [1]; [6]): 49.9 ± 41%
immotile spermatozoa, mean increase (bovine spermatozoa [1]; [8]): 128.3 ± 85.3%
mean decrease in fast progressive motility (bovine spermatozoa [1]; [8]): 53.9 ± 19.9%
mean decrease in slow progressive motility (bovine spermatozoa [1]; [8]): 17.4 ± 57%
immotile spermatozoa, mean increase (bovine spermatozoa [1]; [10]): 86.2 ± 72.3%
mean decrease in fast progressive motility (bovine spermatozoa [1]; [10]): 64.2 ± 8.3%
mean decrease in slow progressive motility (bovine spermatozoa [1]; [10]): 31.4 ± 35%
mean decrease in fast progressive motility (bovine spermatozoa [1]; [12]): 44.6 ± 9.7%
non-progressive motility (bovine spermatozoa [1]; 10 and 20 µM, 1 and 2 h, Figure 3): No significant alterations
internalization (microscopic analyses) (human spermatozoa [2]): internalized very efficiently
motility parameters (human spermatozoa [3]; 10 µM): did not induce any significant alterations
mean decrease in fast progressive motility (human spermatozoa [3]; [14]): 34.5 ± 12.3%
internalization (microscopic analyses) (bovine spermatozoa [4]): internalized very efficiently
